Reference: US8486398B2, “Anticoagulant antidotes comprising antibodies that bind dabigatran and/or related compounds” (Boehringer Ingelheim International GmbH, priority 2010, dated 2013)
“And” between values parts separate entries of the source, which are not always exact repeats. Identical values can stand only once. Like-named read-outs stand apart in the source and are kept apart here.

What was measured:
[1] = compared with dabigatran; cited from earlier work
thrombin = thrombin (Bos taurus, UniProt P00735)
Experimental: Briefly human plasma is obtained by taking whole blood into 3.13% sodium citrate. This is then centrifuged to obtain platelet free plasma and transferred to a separate tube and frozen until required on the day of the assay. Plasma is thawed at 37° C. on the day of the assay.
The thrombin clotting time is performed as follows. First thrombin is diluted to manufacturer's specification (3 IU/mL thrombin) in the buffer provided (Dade Behring Test kit) and prewarmed to 37° C. It is used within 2 hrs of being prepared. All assays were performed on a commercially available CL4 clotting machine (Behnk Electronics, Norderstadt, Germany). Fifty μL of plasma is pipetted into provided cuvettes with a magnetic stirrer and allowed to stir for 2 min in the well preheated to 37° C. in the CL4 machine. At this point 100 μL of the thrombin solution is added and the time required for the plasma sample to clot is recorded automatically by the CL4. Dabigatran is preincubated for 5 min in plasma in the provided cuvettes, before adding thrombin and starting the measurement. If antibody is also tested (up 50 μL of stock solution), there is a further 5 minute incubation at 37° C. before beginning clotting (i.e. 10 min total incubation with dabigatran, 5 min total incubation with antibody and then clotting is initiated with thrombin).

Cn1c(CNc2ccc(C(=N)N)cc2)nc2cc(C(=O)N(CCC(=O)OC3OC(C(=O)O)C(O)C(O)C3O)c3ccccn3)ccc21 (stereo not drawn) [1-O-acylglucuronide]
prolongation of the activated partial thromboplastin time [1]: equipotent prolongation of the activated partial thromboplastin time compared with dabigatran

Cn1c(CNc2ccc(C(=N)N)cc2)nc2cc(C(=O)N(CCC(=O)O)c3ccccn3)ccc21 [dabigatran, N-[2-(4-Amidinophenylaminomethyl)-1-methyl-1H-benzimidazol-5-ylcarbonyl]-N-(2-pyridyl)-beta-alanine]
thrombin clotting time (thrombin; 200 nM dabigatran preincubated with human plasma, baseline 10.9-11 seconds): 51 s and 63.7 s
elevation in clotting time over baseline (thrombin; 200 nM dabigatran, human plasma): ~5 fold
increase in clotting time over baseline (thrombin; 500 nM dabigatran, human plasma): ~10 fold
thrombin clotting time (thrombin; 500 nM dabigatran, human plasma, baseline 10.9 seconds): 111.7 s
concentration dependence of thrombin clotting time (thrombin; increasing concentrations of dabigatran, human plasma): concentration-dependent increase in the thrombin clotting time
